Test results as given in PMC11420952, “A Chemical Approach to Assess the Impact of Post-translational Modification on MHC Peptide Binding and Effector Cell Engagement” (ACS Chemical Biology, 2024).
Where no end group is shown, it is not given here. [ ]: non-standard residue; d: D form. The star is where a group is joined. Biotin = O=C1N[C@H]2[C@H](CS[C@H]2CCCCC(=O)*)N1; Cit = NC(=O)NCCC[C@H](N)C(=O)O

What was measured:
[1] = test system: OVA specific TCR of B3Z T cell hybridoma; test: B3Z T cell activation with peptide-loaded RMA-S cells (NFAT-LacZ / CPRG); assay type: cell-based; conditions: RMA-S cells with peptide and B3Z T cells overnight, effector to target 1:1; β-galactosidase by CPRG, absorbance 570 nm; Figure 2C, mean ± SD n = 4
Text: To assess the impact of ovaWT PTMs on TCR recognition, we utilized the B3Z T cell hybridoma cell line that contains an OVA specific TCR along with a NFAT-LacZ reporter gene that encodes for β-galactosidase on an IL-2 inducible promoter.[79] Upon B3Z recognition of the OVA pMHC complex on RMA-S cells, IL-2 production promotes β-galactosidase expression, which can hydrolyze chlorophenol red-β-D-galactopyranoside (CPRG), and the resulting color change is representative of activation levels.
10^5 RMA-S cells were seeded in a treated 96 well plate at 37 °C overnight. The following day the culture media was replaced with media containing indicated concentration of peptide along with 10^5 B3Z cells in culture media and coincubated overnight. Cells were then spun down at 500xg for 5 min and washed with 1X PBS a total of two times. Lysis buffer containing 0.2% saponin, 500 μM CPRG reagent, 100 mM MgCl2, and 100 mM β-mercaptoethanol in 1X PBS was added to each well. After 2–4 h absorbance 570 was recorded using a BioTek Epoch 2 microplate reader.

[2] = target: T1, H-2K^b (Mus musculus, UniProt P01901); test: cell-based; conditions: RMA-S cells, peptide 20 μM, APC anti-mouse H-2K^b antibody, flow cytometry; for effect of PTM on MHC binding versus the unmodified peptide (ovaWT or mbpWT): Figures 2B and 3B, mean ± SD n = 4, two-tailed t-test; for effect of PTM on MHC binding versus sarsWT: Figure 1C, mean ± SD n = 3, two-tailed t-test
T1 construct: endogenous in cells; host or cells: RMA-S cells (TAP-deficient)
T1 sequence (P01901 22-369): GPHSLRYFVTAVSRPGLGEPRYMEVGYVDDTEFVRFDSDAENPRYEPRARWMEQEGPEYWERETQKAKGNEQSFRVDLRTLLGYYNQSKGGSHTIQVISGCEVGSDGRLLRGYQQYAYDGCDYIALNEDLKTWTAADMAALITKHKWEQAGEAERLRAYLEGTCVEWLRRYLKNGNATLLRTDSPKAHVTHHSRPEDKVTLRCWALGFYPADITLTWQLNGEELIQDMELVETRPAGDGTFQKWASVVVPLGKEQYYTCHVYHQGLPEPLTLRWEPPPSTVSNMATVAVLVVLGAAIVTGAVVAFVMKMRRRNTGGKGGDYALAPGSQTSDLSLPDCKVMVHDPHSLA
T1 sequence (P01887 21-119 partner): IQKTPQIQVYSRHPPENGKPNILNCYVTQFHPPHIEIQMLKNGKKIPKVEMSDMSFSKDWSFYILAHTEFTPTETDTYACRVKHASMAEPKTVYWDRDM

[3] = test system: MHC on RMA-S cells; test: Mild acid elution of MHC-bound peptides from RMA-S cells and mass spectrometry; assay type: cell-based; conditions: 10^9 RMA-S cells, 20 μM peptide, mild acid elution pH 3.3, LC-MS/MS (LTQ-Orbitrap); Figures S5-S8
Experimental: We then sought to detect changes in peptide binding via a competition assay using the parent cell line (RMA) that has a competent TAP system. To this end, we performed a competition assay using the panel of OVA peptides barring PTM mark in live RMA cells. The assay was performed by coincubating RMA cells individually with PTM-modified peptides and also ovaFl (SIINFEK(FITC)L), in which the […] of lysine is modified with fluoresceine. ovaFl has long been utilized by the field to interrogate binding of untagged peptides for MHC molecules. A decrease in cellular fluorescence should indicate higher association levels with MHC molecules, thereby informing on the relative affinity of the PTM-modified molecules. Critically, this assay retains MHC molecules within a physiologically relevant context and this alternative readout should complement the RMA-S MHC stabilization assay. […]
The emitter tip of the analytical column was laser-pulled to produce an opening of 2–5 μm, and a 2 mm kasil frit was used in place of the irregular reverse phase (RP) resin. […] If the same precursor ion was selected three times or was detected twice within a 20-s repeat duration, the ion was dynamically excluded for 15 s. […]

[4] = target: T1, H-2K^b; conditions: reported in the literature; cited from earlier work

## Biotinylated Lysine SIINFKEL: ovaWT with biotinylated lysine (SIINFK(Biotin)EL; not fully specified)
[1]
  effect of PTM on TCR recognition (B3Z activation) versus ovaWT: reduction in TCR recognition
[2]
  effect of PTM on MHC binding versus the unmodified peptide (ovaWT or mbpWT): binding levels are altered but the change is not significant

## N-Acetyl ESIVRFPNI [sarsWT with N-terminus acetylation]
[2]
  effect of PTM on MHC binding versus sarsWT: completely disrupted MHC binding

## SIINFEKL [ovaWT, reference compound]
[3]
  detection of MHC-bound peptide after elution from live RMA-S cells: clearly detected

## SNFVSAGI [cntPEP]
[4]
  interaction with H-2K^b (negative control): not interact appreciably

## Citrullinated ESIVRFPNI: sarsWT with arginine to citrulline (R5) (ESIV[Cit]FPNI)
[2]
  effect of PTM on MHC binding versus sarsWT: no significant effect

## ovaK7m3: ovaWT with trimethylation of K7
[3]
  detection of MHC-bound peptide after elution from live RMA-S cells: detected by mass spectrometry
[2]
  effect of PTM on MHC binding versus the unmodified peptide (ovaWT or mbpWT): does not disrupt binding

## Phosphoserine SIINFEKL: ovaWT with phosphorylated N-terminal serine
[1]
  effect of PTM on TCR recognition (B3Z activation) versus ovaWT: reduction in TCR recognition
[2]
  effect of PTM on MHC binding versus the unmodified peptide (ovaWT or mbpWT): significant decrease in MHC binding
